# Data: US20240158446A1, “CYCLIC COMPOUND HAVING SELECTIVE INHIBITORY ACTION ON KRAS OVER HRAS AND NRAS” (CHUGAI SEIYAKU KABUSHIKI KAISHA, priority 2021, published 2024)
# *1 amine or outer side, *2 acyl side, *3 side chain or, on linkers, in order; H or OH if unused. Where a SMILES comes first, the peptide text is derived from it. Bridges are numbered along the chain shown (N, C = ends). [ ]: non-standard residue; d: D form. The star is where a group is joined. hPhe(3-Cl-4-CF3) = N[C@@H](CCc1ccc(C(F)(F)F)c(Cl)c1)C(=O)O; NPrPhe(4-CF3) = CCCN[C@@H](Cc1ccc(C(F)(F)F)cc1)C(=O)O; X2 = CCCN([C@@H](COC1CCC1)C(=O)[*:2])[*:1]; X4 = CCCN([C@@H](CC(C)C)C(=O)[*:2])[*:1]; NMeGly(cPent) = CN[C@H](C(=O)O)C1CCCC1; Ac4c(3,3-Me2) = CC1(C)CC(N)(C(=O)O)C1; NMeNva(3-Et) = CCC(CC)[C@H](NC)C(=O)O; NMeD = CN[C@@H](CC(=O)O)C(=O)O; NMeL = CN[C@@H](CC(C)C)C(=O)O; Morpholide = C1CN(*)CCO1; Ac5c = NC1(C(=O)O)CCCC1; Ac4c = NC1(C(=O)O)CCC1; NEtG = CCNCC(=O)O; Sar = CNCC(=O)O; Propyl = CCC*
# Experiments:
# [1] = target: GDP-bound NRAS wild-type protein (Homo sapiens, UniProt P01111); assay: Binding to NRAS by surface plasmon resonance (SPR), Single Cycle Kinetics; conditions: ratio of KD for GDP-bound NRAS wild-type protein to KD for KRAS, SPR
# [2] = target: GDP-bound KRAS wild-type protein (Homo sapiens, UniProt P01116); assay: Binding to KRAS by surface plasmon resonance (SPR), Single Cycle Kinetics; conditions: SPR, Single Cycle Kinetics, GDP-bound KRAS wild-type protein; read-out: KRAS KD
# [3] = tested on: human lung cancer strain NCI-H441; assay: cells; conditions: NCI-H441, 96 h, read-out: NCI-H441 IC50 (nM), NCI-H441 cell proliferation, 4 days, CellTiter-Glo;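 further: cell proliferation inhibition after four days measured by CellTiter-Glo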
# [4] = target: GDP-bound HRAS wild-type protein (Homo sapiens, UniProt P01112); assay: Binding to HRAS by surface plasmon resonance (SPR), Single Cycle Kinetics; conditions: ratio of KD for GDP-bound HRAS wild-type protein to KD for KRAS, SPR
# Sequence of GDP-bound HRAS wild-type protein (P01112 whole entry): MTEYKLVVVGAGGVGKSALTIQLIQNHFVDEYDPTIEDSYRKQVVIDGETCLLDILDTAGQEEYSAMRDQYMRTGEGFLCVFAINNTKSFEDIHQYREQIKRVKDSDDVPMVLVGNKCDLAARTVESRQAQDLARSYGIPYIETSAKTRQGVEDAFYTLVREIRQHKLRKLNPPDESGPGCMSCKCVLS
# Sequence of GDP-bound NRAS wild-type protein (P01111 whole entry): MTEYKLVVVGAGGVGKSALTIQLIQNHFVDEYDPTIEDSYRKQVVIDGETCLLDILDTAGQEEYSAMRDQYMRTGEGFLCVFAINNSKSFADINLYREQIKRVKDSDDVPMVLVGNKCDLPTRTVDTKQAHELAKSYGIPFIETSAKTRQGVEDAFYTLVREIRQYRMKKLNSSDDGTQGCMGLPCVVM
# Sequence of GDP-bound KRAS wild-type protein (P01116 whole entry): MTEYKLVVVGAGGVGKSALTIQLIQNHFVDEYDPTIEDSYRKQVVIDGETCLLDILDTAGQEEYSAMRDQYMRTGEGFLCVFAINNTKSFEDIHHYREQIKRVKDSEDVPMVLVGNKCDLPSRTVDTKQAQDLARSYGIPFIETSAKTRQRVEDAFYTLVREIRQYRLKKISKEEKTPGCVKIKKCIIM
SMILES,Kd [2],IC50 [3],NRAS/KRAS (KD ratio) [1],HRAS/KRAS (KD ratio) [4]
CCO[C@@H]1C[C@H]2C(=O)NC3(CC(F)(F)C3)C(=O)N(C)[C@@H](C(CC)CC)C(=O)N(C)[C@H](CC)CC(=O)N(C)[C@@H](CC3CC3)C(=O)N[C@@H]([C@@H](C)CC)C(=O)N(C)CC(=O)N(C)[C@H]3C/C=C\CCN(C3=O)[C@@H](Cc3ccc(C(F)(F)F)cc3)C(=O)N(C)CC(=O)N[C@@H](CCc3cc(F)c(C(F)(F)F)c(F)c3)C(=O)N2C1 [PP1632],3.7 nM,116 nM,A (a compound having 10 or more and less than 20 is denoted as A),A (a compound having 10 or more and less than 20 is denoted as A)
CCCN(C)C(=O)[C@@H]1CC(=O)N(C)[C@@H](C)C(=O)N[C@@H]([C@@H](C)CC)C(=O)N(C)CC(=O)N(C)[C@H]2C/C=C\CCN(C2=O)[C@@H](Cc2ccc(C(F)(F)F)cc2)C(=O)N(C)CC(=O)N[C@@H](CCc2cc(F)c(C(F)(F)F)c(F)c2)C(=O)N2C[C@H](F)C[C@H]2C(=O)NC2(CC(C)(C)C2)C(=O)N(C)[C@@H](C2CCCC2)C(=O)N1C [PP1663],0.038 nM,3.6 nM,AA (a compound having 20 or more is denoted as AA),A (a compound having 10 or more and less than 20 is denoted as A)
CCCN1C(=O)CN(C)C(=O)CN(C)C(=O)[C@H]([C@@H](C)CC)NC(=O)[C@H](CC(C)C)N(C)C(=O)C[C@@H](C(=O)N2CCOCC2)N(C)C(=O)[C@H](C2CCCC2)N(C)C(=O)C2(CCC2)NC(=O)[C@@H]2CCCN2C(=O)[C@H](CCc2ccc(C(F)(F)F)c(Cl)c2)NC(=O)CN(C)C(=O)[C@@H]1COC1CCC1 [PP1816] ([NMeL]I[Sar][Sar][X2][Sar][hPhe(3-Cl-4-CF3)]P[Ac4c][NMeGly(cPent)][NMeD]-Morpholide; lactam N-11),1.2 nM,63.8 nM,B (a compound having 3 or more and less than 10 is denoted as B),C (A compound having a KD ratio of 0.1 or more and less than 3 is denoted as C)
CCO[C@@H]1C[C@H]2C(=O)NC3(CC(C)(C)C3)C(=O)N(C)[C@@H](C3CCCC3)C(=O)N(C)[C@H](C(=O)N(C)CC)CC(=O)N(C)[C@@H](CC(F)F)C(=O)N[C@@H]([C@@H](C)CC)C(=O)N(C)CC(=O)N(C)[C@H]3C/C=C\CCN(C3=O)[C@@H](Cc3ccc(C(F)(F)F)cc3)C(=O)N(C)CC(=O)N[C@@H](CCc3cc(F)c(C(F)(F)F)c(F)c3)C(=O)N2C1 [PP1643],0.055 nM,1.6 nM,A (a compound having 10 or more and less than 20 is denoted as A),A (a compound having 10 or more and less than 20 is denoted as A)
"CCCO[C@H](C)[C@@H]1NC(=O)[C@H](CC(C)C)N(C)C(=O)C[C@@H](C(=O)N2CCOCC2)N(C)C(=O)[C@H](C2CCCC2)N(C)C(=O)C2(CC(C)(C)C2)NC(=O)[C@@H]2CCCN2C(=O)[C@H](CCc2ccc(C(F)(F)F)c(Cl)c2)NC(=O)CN(C)C(=O)[C@H](Cc2ccc(C(F)(F)F)cc2)N(CCC)C(=O)CN(C)C(=O)CN(C)C1=O [PP1965] ([NMeL]T(Propyl)[Sar][Sar][NPrPhe(4-CF3)][Sar][hPhe(3-Cl-4-CF3)]P[Ac4c(3,3-Me2)][NMeGly(cPent)][NMeD]-Morpholide; lactam N-11)",0.3 nM,17.4 nM,B (a compound having 3 or more and less than 10 is denoted as B),B (a compound having 3 or more and less than 10 is denoted as B)
CC[C@H](C)[C@@H]1NC(=O)[C@H](CC)N(C)C(=O)C[C@@H](C(=O)N(C)CC)N(C)C(=O)[C@H](C2CCCC2)N(C)C(=O)C2(CCC2)NC(=O)[C@@H]2C[C@@H](C)CN2C(=O)[C@H](CCc2ccc(C(F)(F)F)c(OC)c2)NC(=O)CN(C)C(=O)[C@H](Cc2ccc(C)cc2)N2CC/C=C\C[C@@H](C2=O)N(C)C(=O)CN(C)C1=O [PP1855],0.19 nM,17.7 nM,AA (a compound having 20 or more is denoted as AA),A (a compound having 10 or more and less than 20 is denoted as A)
CCCN1C(=O)CN(C)C(=O)CN(C)C(=O)[C@H]([C@@H](C)CC)NC(=O)[C@H](CC(C)C)N(C)C(=O)C[C@@H](C(=O)N2CCOCC2)N(C)C(=O)[C@H](C(CC)CC)N(C)C(=O)C2(CCC2)NC(=O)[C@@H]2CCCN2C(=O)[C@H](CCc2ccc(C(F)(F)F)c(Cl)c2)NC(=O)CN(C)C(=O)[C@@H]1Cc1ccc(C(F)(F)F)cc1 [PP1958] ([NMeL]I[Sar][Sar][NPrPhe(4-CF3)][Sar][hPhe(3-Cl-4-CF3)]P[Ac4c][NMeNva(3-Et)][NMeD]-Morpholide; lactam N-11),0.53 nM,57.8 nM,B (a compound having 3 or more and less than 10 is denoted as B),B (a compound having 3 or more and less than 10 is denoted as B)
CCCN1C(=O)C[C@@H](C(=O)N2CCOCC2)N(C)C(=O)[C@H](C2CCCC2)N(C)C(=O)C2(CCC2)NC(=O)[C@@H]2CCCN2C(=O)[C@H](CCc2ccc(C(F)(F)F)c(Cl)c2)NC(=O)CN(C)C(=O)[C@H](Cc2ccc(C(F)(F)F)cc2)N(CCC)C(=O)CN(C)C(=O)CN(C)C(=O)[C@H](C(C)C)NC(=O)[C@@H]1CC(C)C [PP1815] ([X4]V[Sar][Sar][NPrPhe(4-CF3)][Sar][hPhe(3-Cl-4-CF3)]P[Ac4c][NMeGly(cPent)][NMeD]-Morpholide; lactam N-11),0.34 nM,83 nM,B (a compound having 3 or more and less than 10 is denoted as B),B (a compound having 3 or more and less than 10 is denoted as B)

# Continued, in another order:
Kd [2],IC50 [3],SMILES,NRAS/KRAS (KD ratio) [1],HRAS/KRAS (KD ratio) [4]
2.1 nM,74 nM,CCCN1C(=O)CN(C)C(=O)CNC(=O)[C@H]([C@@H](C)CC)NC(=O)[C@H](CC(C)C)N(C)C(=O)C[C@@H](C(=O)N2CCOCC2)N(C)C(=O)[C@H](C2CCCC2)N(C)C(=O)C2(CCCC2)NC(=O)[C@@H]2CCCN2C(=O)[C@H](CCc2ccc(C(F)(F)F)c(Cl)c2)NC(=O)CN(CC)C(=O)[C@@H]1Cc1ccc(C(F)(F)F)cc1 [PP1969] ([NMeL]IG[Sar][NPrPhe(4-CF3)][NEtG][hPhe(3-Cl-4-CF3)]P[Ac5c][NMeGly(cPent)][NMeD]-Morpholide; lactam N-11),B (a compound having 3 or more and less than 10 is denoted as B),C (A compound having a KD ratio of 0.1 or more and less than 3 is denoted as C)
0.21 nM,17.7 nM,CCCN(C)C(=O)[C@@H]1CC(=O)N(C)[C@@H](C(C)C)C(=O)N[C@@H]([C@@H](C)CC)C(=O)N(C)CC(=O)N(C)[C@H]2C/C=C\CCN(C2=O)[C@@H](Cc2ccc(C(F)(F)F)cc2)C(=O)N(C)CC(=O)N[C@@H](CCc2cc(F)c(C(F)(F)F)c(F)c2)C(=O)N2C[C@H](OCC)C[C@H]2C(=O)NC2(CCC2)C(=O)N(C)[C@@H](C2CCCC2)C(=O)N1C [PP1992],AA (a compound having 20 or more is denoted as AA),B (a compound having 3 or more and less than 10 is denoted as B)
0.12 nM,4.9 nM,CCO[C@@H]1C[C@H]2C(=O)NC3(CCC3)C(=O)N(C)[C@@H](C3CCCC3)C(=O)N(C)[C@H](C(=O)N(C)CC)CC(=O)N(C)[C@@H](C3CC3)C(=O)N[C@@H]([C@@H](C)CC)C(=O)N(C)CC(=O)N(C)[C@H]3C/C=C\CCN(C3=O)[C@@H](Cc3ccc(C(F)(F)F)cc3)C(=O)N(C)CC(=O)N[C@@H](CCc3ccc(C(F)(F)F)c(OC)c3)C(=O)N2C1 [PP2021],A (a compound having 10 or more and less than 20 is denoted as A),B (a compound having 3 or more and less than 10 is denoted as B)
0.061 nM,8.1 nM,CCOC[C@H]1C(=O)N[C@@H]([C@@H](C)CC)C(=O)N(C)CC(=O)N(C)[C@H]2C/C=C\CCN(C2=O)[C@@H](Cc2ccc(C(F)(F)F)cc2)C(=O)N(C)CC(=O)N[C@@H](CCc2cc(F)c(C(F)(F)F)c(F)c2)C(=O)N2C[C@H](OCC)C[C@H]2C(=O)NC2(CC(C)(C)C2)C(=O)N(C)[C@@H](C2CCCC2)C(=O)N(C)[C@H](C(=O)N(C)CC)CC(=O)N1C [PP2032],A (a compound having 10 or more and less than 20 is denoted as A),B (a compound having 3 or more and less than 10 is denoted as B)
